The nature of the experiment: In vitro inhibition of Acetylcholinesterase Activity in octopus brain.

Broadly, the Ki is the equilibrium dissociation constant of an inhibitor or competing ligand from its target. Higher therefore signals a looser hold on the target. Turning to `CCCCCSC(=O)OCC[N+](C)(C)C` [Trimethyl-(2-pentylsulfanylcarbonyloxy-ethyl)-ammonium; chloride], the Ki stood at 2000 nM.
